Results reported in patent US6338963B1, “Use of carbon monoxide dependent guanylyl cyclase modifiers to stimulate neuritogenesis” (NeoTherapeutics, Inc., priority 1994, dated 2002).

Key:
PC12 cells = test: Neuritogenesis in PC12 cells; assay type: cell-based, rat; conditions: NGF 40 ng/ml
Description: Much of the work performed in the characterization of the compounds of the present invention involved the use of PC12 cells. These cells are derived from a rat pheochromocytoma and when grown in the presence of NGF, extend neurites, cease cell division and assume many characteristics of sympathetic neurons. When cultured in the absence of nerve growth factor (NGF), few PC12 cells have neurites greater than one cell diameter. Addition of saturating concentrations of NGF for 48 hours stimulates neurite outgrowth in about 20-35% of the cells. Because they constitute a homogeneous population of neuronal-like cells, without contaminating astroglia type cells, it is possible to study the direct effects of the purine based compounds on neurite outgrowth in these cells.
Cells cultured in RPMI 1640 with 1.5% horse serum and 1.5% fetal bovine serum were re-plated onto poly-ornithine coated 24-well culture plates (2.5×10^4 cells per well). AIT-082 and NGF were added to the various cultures immediately upon plating. After 48 hours, medium was removed and the cells irnmediately fixed in 10% formalin and PBS for 10 minutes. Cells and neurites were counted within 2 days of fixation.
A neurite was defined as a process extending from the cell at least 1 cell body diameter in length and displaying a growth cone at its tip. For each treatment, 2 representative microscope fields were counted from each of 6 sister cultures receiving identical treatments. The total number of cells counted per well (approximately 100 cells) and the total number of cells containing neurites in each well were used to determine fraction of neurite-bearing cells. The mean values (±SEM) were then determined for each of the treatments. To facilitate comparison neurite outgrowth was expressed relative to the proportion of cells bearing neurites in the presence of NGF alone (NGF=100%). The effects of compounds with and without NGF were compared by analysis of variance (ANOVA) followed by Tukey's test for significance.
The results are shown in FIG. 3 where the curve represents different levels of AIT-082 plus saturating concentrations (40 ng/ml) NGF. The center horizontal line represents control values for cells cultured in the presence of 40 ng/ml NGF alone. Upper and lower horizontal lines are indicative of confidence limits of NGF alone as determined using standard statistical methods.

NGF mRNA = test: Northern/slot blot of neurotrophin mRNA from astrocytes: NGF; assay type: cell-based, NIH Swiss mice; parameters: key to NGF mRNA: The conditions which produced a detectable amount of each of the neurotrophin mRNAs are indicated by a “+”; a “++” indicating that at least twice the detectable amount was present; Those blots which were negative are indicated by a “−”; conditions: NGF 40 ng/ml, 24 hours
Description: (§1) Induction of neurotrophin mRNA was determined by northern blot analysis of astrocytes cultured with AIT-082, NGF, or both. The cells were harvested and RNA extracted at 24 hours after treatment.
(§2) More particularly, astrocytes from the cerebral cortex of NIH Swiss mice (Harlan) were isolated. Briefly, newborn pups (0-24 hours) were decapitated. Their brains were removed under aseptic conditions and were placed in modified Dulbecco's medium (DMEM) containing 20% heat-inactivated horse serum (Hyclone) (“complete medium”). The neopallium was then dissected from each cerebral hemisphere and minced into 1 mm cubes.
(§3) The astrocytes were then isolated by mechanical dissociation. The cubes were vortexed at maximum speed for one minute. The cell suspension was then passed first through 75 mm Nitex then through 10 mm Nitex. The resulting cell suspension was diluted in complete medium to a final concentration of one brain per 10 ml of complete medium. Ten milliliters of the diluted cell suspension was added to each 100 mm Falcon tissue culture plate (Fisher). After 3 days the medium was replaced with 10 ml fresh complete medium and subsequently was replaced twice weekly with DMEM containing 10% heat inactivated horse serum (“growth medium”). After two weeks in culture the astrocytes formed a confluent monolayer.
(§4) For RNA extraction, astrocytes were trypsinized. The astrocytes were then replated onto 100 mm PORN coated plates at a cell density of 10^6 cells per plate (10 ml growth medium). After 2 hrs PBS, guanosine (Guo), or GTP at 10 mM were added to the appropriate plates. Total RNA was harvested from 1.5×10^7 cells for each treatment, 4 and 24 hrs after treatment using TRIzol reagent and supplier protocol (GIBCO BRL/Life Technologies, Inc.). For slot blots, total RNA was bound to Hybond-N filters (Amersham/United States Biochemicals) as described in Transfer and Immobilization of Nucleic Acids and Proteins to S & S Solid Supports (S and S Protocols: Schleicher & Schuell, New Hampshire, USA). Northern blots were also performed using […] total RNA from each sample. These were electrophoresed in 1% agarose gels containing formaldehyde and blotted onto Hybond-N filters according to S and S protocols.
(§5) The blots were probed with ^32P-labeled cDNA (NGF, NT-3 and BDNF probes) or oligonucleotide probe (FGF-2) by hybridization in Piperazine-N,N′-bis-(2-ethanesulfonic acid) (PIPES) buffer (50 mM PIPES, pH 6.8; 50 mM NaH2PO4; 0.1 M NaCl; 5% SDS and 1 mM EDTA) overnight at 50° C. […] Various concentrations ([…] of total RNA), as determined by spectrophotometry, of each sample were blotted and probed so that quantification could be done after insuring a linear film response. Quantification was performed using MCID Image Analysis (St. Catherine's, Ontario, Canada). […]

FGF-2 mRNA = test: Northern/slot blot of neurotrophin mRNA from astrocytes: FGF-2; assay type: cell-based, NIH Swiss mice; parameters: key to FGF-2 mRNA: The conditions which produced a detectable amount of each of the neurotrophin mRNAs are indicated by a “+”; a “++” indicating that at least twice the detectable amount was present; Those blots which were negative are indicated by a “−”; conditions: NGF 40 ng/ml, 24 hours
Description: as §1, §2, §3, §4, §5

BDNF mRNA = test: Northern blot of neurotrophin mRNA from astrocytes: BDNF; assay type: cell-based, NIH Swiss mice; parameters: key: The conditions which produced a detectable amount of each of the neurotrophin mRNAs are indicated by a “+”; a “++” indicating that at least twice the detectable amount was present; Those blots which were negative are indicated by a “−”; conditions: NGF 40 ng/ml, 24 hours
Description: as §1, §2, §3
(§6) For RNA extraction, astrocytes were trypsinized. The astrocytes were then replated onto 100 mm PORN coated plates at a cell density of 10^6 cells per plate (10 ml growth medium). […]
as §5

NT-3 mRNA = test: Northern blot of neurotrophin mRNA from astrocytes: NT-3; assay type: cell-based, NIH Swiss mice; parameters: key: The conditions which produced a detectable amount of each of the neurotrophin mRNAs are indicated by a “+”; a “++” indicating that at least twice the detectable amount was present; Those blots which were negative are indicated by a “−”; conditions: NGF 40 ng/ml, 24 hours
Description: as §1, §2, §3, §6, §5

[1] = tested on: basal forebrain cholinergic neurons; conditions: mouse NGF 25 μg/ml, Barnett et al.; cited from earlier work

NGF: nerve growth factor
Proportion of cells bearing neurites, NGF alone (PC12 cells; Methemoglobin 1 μM): 0.2 ± 0.02
Proportion of cells bearing neurites, NGF alone (PC12 cells; Methylene Blue 5 μM): 0.24 ± 0.03
Proportion of cells bearing neurites, NGF alone (PC12 cells; Zn Protoporphyrin IX 1 μM): 0.22 ± 0.03
Proportion of cells bearing neurites, NGF alone (PC12 cells; no inhibitor, 48 hours): 0.2 ± 0.02
NGF mRNA (NGF mRNA): −
FGF-2 mRNA (FGF-2 mRNA): −
BDNF mRNA (BDNF mRNA): +
NT-3 mRNA (NT-3 mRNA): −
rescue of ChAT-positive cells following the FFT lesion [1]: robust rescue effect
